# Results as given in ChEMBL document CHEMBL2074105, “The potential for an interaction between MRP2 (ABCC2) and various therapeutic agents: probenecid as a candidate inhibitor of the biliary excretion of irinotecan metabolites” (Drug Metabol Pharmacokin, 2002).
# Assays:
# [1] = target: T1, ATP-binding cassette sub-family C member 2 (Rattus norvegicus, UniProt Q63120); assay: TP_TRANSPORTER: inhibition of DNP-SG uptake in bile canalicular membrane vesicles from SD rat; format: functional, cell membranes, Sprague-Dawley, Bile canalicular membrane vesicle
# [2] = target: T1, ATP-binding cassette sub-family C member 2; assay: TP_TRANSPORTER: inhibition of SN-38 uptake in bile canalicular membrane vesicles from SD rat; format: functional, cell membranes, Sprague-Dawley, Bile canalicular membrane vesicle
# [3] = target: ATP-binding cassette sub-family C member 2 (Rattus norvegicus) (UniProt Q63120); assay: TP_TRANSPORTER: inhibition of SN-38 uptake in bile canalicular membrane vesicles
# [4] = target: T1, ATP-binding cassette sub-family C member 2; assay: TP_TRANSPORTER: inhibition of DNP-SG uptake in blie canalicular membrane vesicle from SD rat; format: functional, cell membranes, Sprague-Dawley, Bile canalicular membrane vesicle
# T1 sequence (Q63120 whole entry): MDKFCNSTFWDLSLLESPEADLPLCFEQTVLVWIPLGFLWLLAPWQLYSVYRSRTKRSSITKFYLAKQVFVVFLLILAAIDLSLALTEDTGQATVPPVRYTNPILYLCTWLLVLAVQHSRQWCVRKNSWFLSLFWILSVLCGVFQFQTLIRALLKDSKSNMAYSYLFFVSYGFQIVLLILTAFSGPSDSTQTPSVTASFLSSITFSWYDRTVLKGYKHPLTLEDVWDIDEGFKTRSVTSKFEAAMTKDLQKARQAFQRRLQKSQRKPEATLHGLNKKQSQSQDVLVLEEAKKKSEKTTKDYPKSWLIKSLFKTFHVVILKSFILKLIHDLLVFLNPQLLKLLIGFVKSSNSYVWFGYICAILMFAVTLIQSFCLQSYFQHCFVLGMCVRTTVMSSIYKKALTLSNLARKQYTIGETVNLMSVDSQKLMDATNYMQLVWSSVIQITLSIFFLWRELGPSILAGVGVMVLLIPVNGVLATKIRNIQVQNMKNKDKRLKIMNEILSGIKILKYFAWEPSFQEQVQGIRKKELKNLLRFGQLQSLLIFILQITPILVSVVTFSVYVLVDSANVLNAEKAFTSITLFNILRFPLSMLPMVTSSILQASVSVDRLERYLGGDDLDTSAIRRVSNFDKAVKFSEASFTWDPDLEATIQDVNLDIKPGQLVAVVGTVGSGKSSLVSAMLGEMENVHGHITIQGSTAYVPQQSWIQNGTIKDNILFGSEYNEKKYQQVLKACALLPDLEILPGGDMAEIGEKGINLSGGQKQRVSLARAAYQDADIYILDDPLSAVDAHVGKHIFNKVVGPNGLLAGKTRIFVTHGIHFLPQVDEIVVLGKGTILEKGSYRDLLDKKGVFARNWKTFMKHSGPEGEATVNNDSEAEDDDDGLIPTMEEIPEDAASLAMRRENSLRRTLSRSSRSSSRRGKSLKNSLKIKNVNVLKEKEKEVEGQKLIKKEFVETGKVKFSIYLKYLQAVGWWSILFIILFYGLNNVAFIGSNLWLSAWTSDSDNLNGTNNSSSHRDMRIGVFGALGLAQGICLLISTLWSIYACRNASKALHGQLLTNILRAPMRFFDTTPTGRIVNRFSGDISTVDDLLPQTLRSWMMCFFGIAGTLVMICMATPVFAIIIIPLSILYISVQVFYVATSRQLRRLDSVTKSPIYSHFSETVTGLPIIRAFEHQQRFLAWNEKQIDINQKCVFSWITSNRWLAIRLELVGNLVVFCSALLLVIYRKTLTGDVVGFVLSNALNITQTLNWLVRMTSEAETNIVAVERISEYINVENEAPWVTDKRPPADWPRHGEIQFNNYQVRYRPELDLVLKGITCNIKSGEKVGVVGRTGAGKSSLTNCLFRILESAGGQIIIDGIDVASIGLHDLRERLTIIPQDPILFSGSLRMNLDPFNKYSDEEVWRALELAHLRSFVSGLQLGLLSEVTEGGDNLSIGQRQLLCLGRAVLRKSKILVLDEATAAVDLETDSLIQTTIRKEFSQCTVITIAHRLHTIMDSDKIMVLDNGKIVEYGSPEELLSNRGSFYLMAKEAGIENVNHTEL
# Sequence of ATP-binding cassette sub-family C member 2 (Rattus norvegicus) (Q63120 whole entry, looked up): as the sequence (Q63120 whole entry) above
Ki [1] [µM],Compound,further results
10,CO/N=C(\C(=O)N[C@@H]1C(=O)N2C(C(=O)O)=C(CSc3nc(C)c(CC(=O)O)s3)CS[C@H]12)c1csc(N)n1 [CEFODIZIME],–
132,Nc1nc2c(c(=O)[nH]1)N(C=O)C(CNc1ccc(C(=O)N[C@@H](CCC(=O)O)C(=O)O)cc1)CN2 (stereo partly drawn) [LEUCOVORIN],–
7.95,O=C(O)[C@H]1O[C@@H](Oc2cc3oc(-c4ccccc4)cc(=O)c3c(O)c2O)[C@H](O)[C@@H](O)[C@@H]1O [BAICALIN],–
41.1,O=C(Nc1cccc2c(=O)cc(-c3nnn[nH]3)oc12)c1ccc(OCCCCc2ccccc2)cc1 [PRANLUKAST],–
281,CREMOPHOR EL,–
0.84,CC1(C)[C@@H](O[C@H]2O[C@H](C(=O)O)[C@@H](O)[C@H](O)[C@H]2O[C@@H]2O[C@H](C(=O)O)[C@@H](O)[C@H](O)[C@H]2O)CC[C@]2(C)[C@H]3C(=O)C=C4[C@@H]5C[C@@](C)(C(=O)O)CC[C@]5(C)CC[C@@]4(C)[C@]3(C)CC[C@@H]12 [GLYCYRRHIZIN],Ki [2]: 1.91 µM
–,CCCN(CCC)S(=O)(=O)c1ccc(C(=O)O)cc1 [PROBENECID],Ki [3]: 42.2 µM; Ki [4]: 44.6 µM
1,CC1(C)C(/C=C/C=C/C=C/C=C2\N(CCCCS(=O)(=O)O)c3ccc4ccccc4c3C2(C)C)=[N+](CCCCS(=O)(=O)[O-])c2ccc3ccccc3c21 [INDOCYANINE GREEN],–
0.0461,N[C@@H](CCC(=O)N[C@@H](CSc1c(Br)c(Br)c2c(c1Br)C(=O)OC2(c1ccc(O)c(S(=O)(=O)O)c1)c1ccc(O)c(S(=O)(=O)O)c1)C(=O)NCC(=O)O)C(=O)O,–

Compound,Ki [1] [µM],further results
O=C1OC(c2ccc(O)c(S(=O)(=O)O)c2)(c2ccc(O)c(S(=O)(=O)O)c2)c2c(Br)c(Br)c(Br)c(Br)c21 [SULFOBROMOPHTHALEIN SODIUM],2.18,Ki [2]: 2.87 µM
